Values quoted from earlier work in patent publication US8246984B2, “Formulation of insoluble small molecule therapeutics in lipid-based carriers” (Rigel Pharmaceuticals, Inc., priority 2005, dated 2012).

details: transition temperature, gel to liquid crystalline phase

SMILES | Tm [°C]
CCCCCCCCCCCCCC(=O)OC[C@H](COP(=O)([O-])OCC[N+](C)(C)C)OC(=O)CCCCCCCCCCCCC [Dimyristoylphosphatidylcholine] | 23
CCCCCCCC/C=C\CCCCCCCC(=O)OC[C@H](COP(=O)([O-])OCC[N+](C)(C)C)OC(=O)CCCCCCC/C=C\CCCCCCCC [Dioleoylphosphatidylcholine, 1,2-dioleoyl-sn-glycero-3-phosphocholine] | −22
CCCCCCCCCCCCCCCC(=O)OC[C@H](COP(=O)([O-])OCC[N+](C)(C)C)OC(=O)CCCCCCCCCCCCCCC [Dipalmitoylphosphatidylcholine] | 41
CCCCCCCCCCCCCCCCCC(=O)OC[C@H](COP(=O)([O-])OCC[N+](C)(C)C)OC(=O)CCCCCCCCCCCCCCCCC [Distearoylphosphatidylcholine] | 55
